Where two headings read alike, the source gives them in different places.

The target in the test is T1, human Nav1.8 (hNav1.8) ion channel (Homo sapiens, UniProt Q9Y5Y9).
T1 construct: expressed in transfected cells
The test can be described thus: Inhibition of human Nav1.8 stably expressed in SH-SY-5Y cells (membrane potential dye fluorescence assay). The conditions noted are these: SH-SY-5Y hNav1.8 cells, inhibition of membrane depolarisation, FLIPR membrane potential dye, 250 nM TTX, test concentration range 100 μM-0.05 μM. Format: cell-based. The protocol:
Inhibition of Human Nav1.8 Stably Expressed in SH-SY-5Y Cells
A SH-SY-5Y neuroblastoma cell line stably expressing the human […] (hNav1.8) ion channel was constructed. This cell line has been used to develop a medium to high throughput assay for determining the ability of test compounds to inhibit membrane depolarisation mediated via the hNav1.8 channel.
SH-SY-5Y hNav1.8 are grown in adherent monolayer culture using 50:50 Ham's F-12/EMEM tissue culture medium supplemented with 15% (v/v) foetal bovine serum; 2 mM L-glutamine, 1% NEAA and 600 μg·ml^−1 Geneticin sulphate. Cells are removed from the tissue culture flask using trypsin/EDTA and re-plated into black walled, clear bottom 96-well assay plates at 50,000 cells·well^−1 24 hours prior to assay.
On the day of assay the cell assay plates are washed to remove cell culture medium using a sodium free assay buffer (145 mM tetramethyl ammonium chloride; 2 mM calcium chloride; 0.8 mM magnesium chloride hexahydrate; 10 mM HEPES; 10 mM glucose; 5 mM potassium chloride, pH 7.4). Fluorescent membrane potential dye solution (FLIPR™ membrane potential dye, Molecular Devices Corporation), containing 10 μM of a pyrethroid to prevent channel inactivation and 250 nM tetrodotoxin (TTX) to reduce interference from TTX-sensitive sodium channels present in the cell line. Test compound, initially dissolved in dimethyl sulfoxide but further diluted in sodium free buffer, is added to achieve the final test concentration range of 100 μM-0.05 μM.
Cell plates are incubated for 30 minutes at room temperature to allow equilibration of dye and test compound. Plates are then transferred to a fluorescence plate reader for fluorescence measurement using an excitation wavelength of 530 nm whilst measuring fluorescence emission at 565 nm. Baseline fluorescence levels are first determined before the addition of a sodium containing buffer (220 mM sodium chloride; 2 mM calcium chloride; 0.8 mM magnesium chloride hexahydrate; […]; 10 mM glucose; 5 mM potassium chloride. pH 7.4) to cause membrane depolarisation in those cells where channel block has not been effected (final sodium concentration=72.5 mM). Membrane depolarisation is registered by an increase in fluorescence emission at 565 nm.
The change in fluorescence seen in each test well upon the addition of sodium containing buffer is calculated relative to the baseline fluorescence for that well. This figure is then used for calculating the IC50 for each test compound.

[1] abbreviates: Table 2 (compound numbers of the list in the description), read-out: IC50.

T1 sequence (Q9Y5Y9 whole entry): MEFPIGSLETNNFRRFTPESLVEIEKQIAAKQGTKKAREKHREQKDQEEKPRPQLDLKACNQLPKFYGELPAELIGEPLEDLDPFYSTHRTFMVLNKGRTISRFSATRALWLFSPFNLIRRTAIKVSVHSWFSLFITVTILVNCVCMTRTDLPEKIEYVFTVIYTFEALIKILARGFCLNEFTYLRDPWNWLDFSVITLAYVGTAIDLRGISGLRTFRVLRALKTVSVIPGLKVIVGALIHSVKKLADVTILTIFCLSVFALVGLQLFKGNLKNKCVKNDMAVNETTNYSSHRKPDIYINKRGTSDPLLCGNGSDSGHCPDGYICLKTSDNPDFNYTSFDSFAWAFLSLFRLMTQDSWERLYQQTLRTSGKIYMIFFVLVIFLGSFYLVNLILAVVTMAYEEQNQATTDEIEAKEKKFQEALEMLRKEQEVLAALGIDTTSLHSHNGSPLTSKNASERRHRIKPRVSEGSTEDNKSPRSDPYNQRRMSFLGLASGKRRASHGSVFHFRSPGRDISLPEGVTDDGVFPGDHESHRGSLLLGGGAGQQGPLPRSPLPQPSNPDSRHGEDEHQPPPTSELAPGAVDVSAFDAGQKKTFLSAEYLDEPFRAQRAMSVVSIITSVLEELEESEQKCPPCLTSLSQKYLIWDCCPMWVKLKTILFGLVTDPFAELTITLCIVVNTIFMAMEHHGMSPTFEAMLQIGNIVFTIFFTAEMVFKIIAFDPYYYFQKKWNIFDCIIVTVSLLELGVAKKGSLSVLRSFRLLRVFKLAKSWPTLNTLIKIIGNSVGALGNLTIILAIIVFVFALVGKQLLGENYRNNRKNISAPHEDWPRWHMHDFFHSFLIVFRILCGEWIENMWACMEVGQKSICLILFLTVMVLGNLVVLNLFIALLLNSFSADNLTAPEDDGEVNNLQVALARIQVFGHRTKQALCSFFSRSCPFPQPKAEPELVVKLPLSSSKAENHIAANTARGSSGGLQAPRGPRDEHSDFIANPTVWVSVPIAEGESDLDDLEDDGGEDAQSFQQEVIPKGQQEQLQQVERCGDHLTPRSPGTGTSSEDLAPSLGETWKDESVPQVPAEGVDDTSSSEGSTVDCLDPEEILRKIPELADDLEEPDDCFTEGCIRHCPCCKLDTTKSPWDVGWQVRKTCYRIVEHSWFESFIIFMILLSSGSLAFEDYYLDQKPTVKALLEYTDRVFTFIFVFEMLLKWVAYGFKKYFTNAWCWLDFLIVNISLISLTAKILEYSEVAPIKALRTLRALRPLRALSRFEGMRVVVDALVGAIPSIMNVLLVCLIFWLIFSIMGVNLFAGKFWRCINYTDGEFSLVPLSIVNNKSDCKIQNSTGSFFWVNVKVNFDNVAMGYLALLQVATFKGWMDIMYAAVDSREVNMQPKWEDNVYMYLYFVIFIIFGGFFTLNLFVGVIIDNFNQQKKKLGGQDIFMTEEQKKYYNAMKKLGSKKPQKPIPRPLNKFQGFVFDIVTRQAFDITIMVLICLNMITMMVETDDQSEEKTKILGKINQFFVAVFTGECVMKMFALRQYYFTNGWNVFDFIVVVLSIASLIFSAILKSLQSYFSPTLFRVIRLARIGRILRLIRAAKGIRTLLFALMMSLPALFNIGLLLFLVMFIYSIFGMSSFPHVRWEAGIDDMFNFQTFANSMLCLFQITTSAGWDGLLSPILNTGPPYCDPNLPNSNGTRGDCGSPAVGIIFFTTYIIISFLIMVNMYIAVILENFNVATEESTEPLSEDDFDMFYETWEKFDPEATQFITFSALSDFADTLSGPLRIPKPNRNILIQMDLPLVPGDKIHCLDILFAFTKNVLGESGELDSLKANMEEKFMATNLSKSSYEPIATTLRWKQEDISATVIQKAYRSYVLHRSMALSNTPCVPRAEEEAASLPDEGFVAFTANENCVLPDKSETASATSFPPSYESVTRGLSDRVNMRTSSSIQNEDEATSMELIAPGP

As usually defined, the IC50 is the concentration at which inhibition is half-maximal. For `O=C(CN1Cc2ccccc2C1)NC(c1ccccc1)c1ccccc1` [Example 41, N-Benzhydryl-2-(1,3-dihydro-isoindol-2-yl)-acetamide], where the note is “Table 1, read-out: IC50”, the concentration for half-maximal inhibition (IC50) came out at 7020 nM.
As for `COc1ccc2c(c1)CCCN(CC(=O)NCC(c1ccccc1)c1ccccc1)C2` [Compound 84, N-(2,2-diphenyl-ethyl)-2-(7-methoxy-1,3,4,5-tetrahydro-benzo[c]azepin-2-yl)-acetamide], under setting [1], the IC50 was determined as 400 nM.
On the same count and under the same terms, as for `COc1cccc2c1CN(CC(=O)NCCCOC(c1ccccc1)c1ccccc1)CC2` [Compound 94, N-(3-Benzhydryloxy-propyl)-2-(8-methoxy-3,4-dihydro-1H-isoquinolin-2-yl)-acetamide], the figure is 2840 nM; as for `CC(=O)Nc1ccc(C(CCNC(=O)CN2CCc3ccccc3C2)c2ccccc2)cc1NC(C)=O` (centres unmarked) [Compound 116, N-[3-(3,4-Bis-acetylamino-phenyl)-3-phenyl-propyl]-2-(3,4-dihydro-1H-isoquinolin-2-yl)-acetamide], 22200 nM; as for `CSc1ccc2c(c1)N(C(=O)CN1CCc3cccc(O)c3C1)c1ccccc1S2` [Compound 158, 2-(8-Hydroxy-3,4-dihydro-1H-isoquinolin-2-yl)-1-(2-methylsulfanyl-phenothiazin-10-yl)-ethanone], 4590 nM.
Turning to `O=C(CON=C(c1ccccc1)c1ccccc1)N1CCc2ccccc2C1` [Example 42, 2-Benzhydrylideneaminooxy-1-(3,4-dihydro-1H-isoquinoline-2-yl)-ethanone], the IC50 (Table 1, read-out: IC50) is 1050 nM.
With `COc1ccc(C(CCNC(=O)CN2CCc3ccccc3C2)c2ccc(OC)cc2)cc1` [Compound 114, N-[3,3-Bis-(4-methoxy-phenyl)-propyl]-2-(3,4-dihydro-1H-isoquinolin-2-yl)-acetamide], the concentration for half-maximal inhibition (IC50) under setting [1] is 10600 nM.
As for `COc1cccc2c1CN(CC(c1ccccc1)c1ccccc1)CC2` [Example 13, 2-(2,2-Diphenyl-ethyl)-8-methoxy-1,2,3,4-tetrahydro-isoquinoline], the half-inhibitory concentration (IC50) (Table 1, read-out: IC50) was 1390 nM.
Regarding `O=C(CN1CCc2cccnc2C1)N1c2ccccc2Oc2ccccc21` [Compound 173, 2-(5,8-Dihydro-6H-[1,7]naphthyridin-7-yl)-1-phenoxazin-10-yl-ethanone], under setting [1], the half-inhibitory concentration (IC50) came out at 5640 nM.
As to `COc1cccc2c1CN(CCNC(=O)NC(c1ccccc1)c1ccccc1)CC2` [Compound 135, 1-Benzhydryl-3-[2-(8-methoxy-3,4-dihydro-1H-isoquinolin-2-yl)-ethyl]-urea], under setting [1], the IC50 worked out at 380 nM.
Same read-out and setting: then `O=C(CNC(c1ccccc1)c1ccccc1)N1Cc2ccccc2C1` [Compound 107, 2-(Benzhydryl-amino)-1-(1,3-dihydro-isoindol-2-yl)-ethanone], with 2260 nM.
Consider `COc1cccc2c1CN(CCNC(=O)N1c3ccccc3Oc3ccccc31)CC2` [Compound 164, Phenoxazine-10-carboxylic acid [2-(8-methoxy-3,4-dihydro-1H-isoquinolin-2-yl)-ethyl]-amide], for which the IC50 under setting [1] is 710 nM.
Same read-out and setting: as for `Nc1cccc2c1CN(CC(=O)NCCCC(c1ccccc1)c1ccccc1)CC2` [Compound 109, 2-(8-Amino-3,4-dihydro-1H-isoquinolin-2-yl)-N-(4,4-diphenyl-butyl)-acetamide], the figure is 1800 nM.
For `COc1cc2c(cc1OC)CN(CCNC(=S)NCC(c1ccccc1)c1ccccc1)CC2` [Compound 138, 1-[2-(6,7-Dimethoxy-3,4-dihydro-1H-isoquinolin-2-yl)-ethyl]-3-(2,2-diphenyl-ethyl)-thiourea], under setting [1], the half-inhibitory concentration (IC50) is 520 nM.
For `c1ccc(C(CN2CCc3ccccc3C2)c2ccccc2)cc1` [Example 12, 2-(2,2-Diphenyl-ethyl)1,2,3,4-tetrahydro-isoquinoline], the IC50 (Table 1, read-out: IC50) turned out to be 990 nM.
Regarding `CCOC(=O)C1CN(C(=O)CN2CCc3cccc(O)c3C2)c2ccccc2O1` (centres unmarked) [Compound 170, 4-[2-(8-Hydroxy-3,4-dihydro-1H-isoquinolin-2-yl)-acetyl]-3,4-dihydro-2H-benzo[1,4]oxazine-2-carboxylic acid ethyl ester], the concentration for half-maximal inhibition (IC50) under setting [1] was determined as 1690 nM.
With `COc1cccc2c1CN(CC(=O)N1c3ccccc3OCC1c1ccccc1)CC2` (centres unmarked) [Compound 71, 2-(8-methoxy-3,4-dihydro-1H-isoquinolin-2-yl)-1-(3-phenyl-2,3-dihydro-benzo[1,4]oxazin-4-yl)-ethanone], the IC50 under setting [1] is 2180 nM.
On the same count and under the same terms, as for `COc1cccc2c1CN(CC(=O)n1c3ccccc3c3ccccc31)CC2` [Compound 204, 1-Carbazol-9-yl-2-(8-methoxy-3,4-dihydro-1H-isoquinolin-2-yl)-ethanone], the figure is 10700 nM.
For the molecule `COc1cccc2c1CN(C(=S)NCC(c1ccccc1)c1ccccc1)CC2` [Example 52, 8-Methoxy-3,4-dihydro-1H-isoquinolin-2-carbothioic acid (2,2-diphenyl-ethyl)-amide], the IC50 (Table 1, read-out: IC50) worked out at 4680 nM.
`COc1cccc2c1CN(CC(=O)NCCC(c1ccccc1)c1ccccc1)C2` [Compound 88, N-(3,3-diphenyl-propyl)-2-(4-methoxy-1,3-dihydro-isoindol-2-yl)-acetamide]: the half-maximal inhibitory concentration (IC50) under setting [1] stood at 2090 nM.
The same measure, in the same setting: then `O=C(CN1CCc2cc(O)ccc2C1)N1c2ccccc2Oc2ccccc21` [Compound 194, 2-(6-Hydroxy-3,4-dihydro-1H-isoquinolin-2-yl)-1-phenoxazin-10-yl-ethanone], with 2890 nM; and `O=C(CN1CCc2cccc(O)c2C1)N1c2ccccc2Sc2ccccc21` [Compound 139, 2-(8-Hydroxy-3,4-dihydro-1H-isoquinolin-2-yl)-1-phenothiazin-10-yl-ethanone], with 1250 nM; and `COc1cccc2c1CN(CC(=O)N1c3ccccc3Sc3ccc(Cl)cc31)CC2` [Compound 142, 1-(2-Chloro-phenothiazin-10-yl)-2-(8-methoxy-3,4-dihydro-1H-isoquinolin-2-yl)-ethanone], with 2090 nM.
With `Oc1cccc2c1CN(Cc1c(F)cccc1Cl)CC2` [Example 91, 2-(2-Chloro-6-fluoro-benzyl)-1,2,3,4-tetrahydro-isoquinolin-8-ol], the IC50 (Table 1, read-out: IC50) is 6910 nM.
Turning to `COc1cc2c(cc1OC)CN(CCNC(=O)N1c3ccccc3Oc3ccccc31)CC2` [Compound 165, Phenoxazine-10-carboxylic acid [2-(6,7-dimethoxy-3,4-dihydro-1H-isoquinolin-2-yl)-ethyl]-amide], the concentration for half-maximal inhibition (IC50) under setting [1] was 1020 nM.
Molecule `Cc1cnc(C(C)NC(=O)CN2CCc3cccc(O)c3C2)s1` (centres unmarked) [Example 29, 2-(8-Hydroxy-3,4-dihydro-1H-isoquinolin-2-yl)-N-[1-(5-methyl-thiazol-2-yl)-ethyl]-acetamide] yielded an IC50 (IC50, Table 1) of 15000 nM.
Regarding `COc1cccc2c1CN(CC(=O)N(Cc1ccccc1)Cc1ccccc1)CC2` [Compound 79, N,N-dibenzyl-2-(8-methoxy-3,4-dihydro-1H-isoquinolin-2-yl)-acetamide], the IC50 under setting [1] was 1020 nM.
The same measure, in the same setting: then `COc1cccc2c1CN(CCNC(=S)NCC(c1ccccc1)c1ccccc1)CC2` [Compound 137, 1-(2,2-Diphenyl-ethyl)-3-[2-(8-methoxy-3,4-dihydro-1H-isoquinolin-2-yl)-ethyl]-thiourea], with 440 nM; and `CS(=O)(=O)Nc1cccc2c1CN(CC(=O)NCCCC(c1ccccc1)c1ccccc1)CC2` [Compound 117, N-(4,4-Diphenyl-butyl)-2-(8-methanesulfonylamino-3,4-dihydro-1H-isoquinolin-2-yl)-acetamide], with 1360 nM.

Values taken from US20070043024A1, “Azacyclic compounds as inhibitors of sensory neurone specific channels” (priority 2003, published 2007).
